Measurements reported in patent US20230416248A1, “COMPOUNDS AND USES THEREOF” (Foghorn Therapeutics Inc., priority 2020, published 2023).
pIC50: −log10 of the molar value. Read-outs that look alike come from different tables or passages of the source.

Legend:
[1] = target: T1, BRG-1 (Homo sapiens, UniProt P51532); assay: ATPase catalytic activity of BRG-1, ADP-Glo in vitro biochemical assay; conditions: 30 nM BRG-1, 400 μM ATP, read-out: BRG1 IC50
T1 construct: made in house; host or cells: High Five insect cells
T1 sequence (P51532 whole entry): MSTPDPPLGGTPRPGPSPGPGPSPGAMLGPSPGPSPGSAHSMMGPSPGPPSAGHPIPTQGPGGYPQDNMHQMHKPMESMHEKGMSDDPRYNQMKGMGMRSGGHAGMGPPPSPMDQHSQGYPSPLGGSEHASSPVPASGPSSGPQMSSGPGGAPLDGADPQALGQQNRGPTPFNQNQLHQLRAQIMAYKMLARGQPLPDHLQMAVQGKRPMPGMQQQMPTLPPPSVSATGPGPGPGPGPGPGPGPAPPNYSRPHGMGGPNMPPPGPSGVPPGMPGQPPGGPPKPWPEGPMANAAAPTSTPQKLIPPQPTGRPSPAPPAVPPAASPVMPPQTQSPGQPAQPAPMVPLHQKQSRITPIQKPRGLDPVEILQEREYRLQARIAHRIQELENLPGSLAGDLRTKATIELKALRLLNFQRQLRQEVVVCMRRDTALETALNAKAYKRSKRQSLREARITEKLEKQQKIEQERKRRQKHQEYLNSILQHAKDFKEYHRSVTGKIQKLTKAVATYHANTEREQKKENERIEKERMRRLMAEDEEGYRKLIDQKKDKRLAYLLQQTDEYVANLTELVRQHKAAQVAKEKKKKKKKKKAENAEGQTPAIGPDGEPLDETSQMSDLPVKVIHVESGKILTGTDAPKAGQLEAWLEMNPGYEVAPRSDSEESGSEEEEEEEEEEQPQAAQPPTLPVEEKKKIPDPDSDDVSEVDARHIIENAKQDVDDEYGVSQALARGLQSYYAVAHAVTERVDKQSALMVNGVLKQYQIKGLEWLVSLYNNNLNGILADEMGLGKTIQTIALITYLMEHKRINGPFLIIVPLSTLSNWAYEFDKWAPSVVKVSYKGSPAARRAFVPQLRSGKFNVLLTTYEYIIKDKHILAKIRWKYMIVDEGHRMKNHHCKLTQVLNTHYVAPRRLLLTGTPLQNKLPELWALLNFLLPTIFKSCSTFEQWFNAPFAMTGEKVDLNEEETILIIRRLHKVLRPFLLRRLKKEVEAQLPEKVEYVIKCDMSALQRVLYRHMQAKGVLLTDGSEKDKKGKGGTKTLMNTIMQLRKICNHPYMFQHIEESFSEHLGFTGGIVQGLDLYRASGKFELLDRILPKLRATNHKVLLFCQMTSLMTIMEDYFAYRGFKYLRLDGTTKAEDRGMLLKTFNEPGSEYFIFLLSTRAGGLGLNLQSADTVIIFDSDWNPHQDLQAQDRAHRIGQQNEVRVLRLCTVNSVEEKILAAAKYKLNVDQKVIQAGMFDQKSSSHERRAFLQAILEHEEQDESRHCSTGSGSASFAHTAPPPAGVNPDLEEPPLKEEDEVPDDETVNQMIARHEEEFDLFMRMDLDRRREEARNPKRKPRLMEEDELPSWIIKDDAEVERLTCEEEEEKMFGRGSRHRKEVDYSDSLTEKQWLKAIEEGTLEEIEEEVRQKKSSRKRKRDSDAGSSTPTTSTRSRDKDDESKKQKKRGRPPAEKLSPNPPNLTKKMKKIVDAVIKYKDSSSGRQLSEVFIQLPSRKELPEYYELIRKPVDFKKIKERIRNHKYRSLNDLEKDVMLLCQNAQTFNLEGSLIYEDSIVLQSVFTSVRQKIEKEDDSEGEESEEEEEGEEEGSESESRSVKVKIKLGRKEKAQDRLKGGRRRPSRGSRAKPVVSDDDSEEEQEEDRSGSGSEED
Summary of the method: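 ADP produced by BRG-1 was quantified by luciferase luminescence. A 60 min room-temperature ADP-to-ATP conversion followed a 40 min ATP-depletion step.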

[2] = target: T2, BRM (Homo sapiens, UniProt P51531); assay: ATPase catalytic activity of BRM, ADP-Glo in vitro biochemical assay; conditions: for pIC50: 30 nM BRM, 400 μM ATP; for Ratio* (BRG1 IC50 (μM) divided by BRM IC50 (μM)): selectivity ratio BRG1 IC50 / BRM IC50
T2 construct: made in house; host or cells: High Five insect cells
T2 sequence (P51531 whole entry): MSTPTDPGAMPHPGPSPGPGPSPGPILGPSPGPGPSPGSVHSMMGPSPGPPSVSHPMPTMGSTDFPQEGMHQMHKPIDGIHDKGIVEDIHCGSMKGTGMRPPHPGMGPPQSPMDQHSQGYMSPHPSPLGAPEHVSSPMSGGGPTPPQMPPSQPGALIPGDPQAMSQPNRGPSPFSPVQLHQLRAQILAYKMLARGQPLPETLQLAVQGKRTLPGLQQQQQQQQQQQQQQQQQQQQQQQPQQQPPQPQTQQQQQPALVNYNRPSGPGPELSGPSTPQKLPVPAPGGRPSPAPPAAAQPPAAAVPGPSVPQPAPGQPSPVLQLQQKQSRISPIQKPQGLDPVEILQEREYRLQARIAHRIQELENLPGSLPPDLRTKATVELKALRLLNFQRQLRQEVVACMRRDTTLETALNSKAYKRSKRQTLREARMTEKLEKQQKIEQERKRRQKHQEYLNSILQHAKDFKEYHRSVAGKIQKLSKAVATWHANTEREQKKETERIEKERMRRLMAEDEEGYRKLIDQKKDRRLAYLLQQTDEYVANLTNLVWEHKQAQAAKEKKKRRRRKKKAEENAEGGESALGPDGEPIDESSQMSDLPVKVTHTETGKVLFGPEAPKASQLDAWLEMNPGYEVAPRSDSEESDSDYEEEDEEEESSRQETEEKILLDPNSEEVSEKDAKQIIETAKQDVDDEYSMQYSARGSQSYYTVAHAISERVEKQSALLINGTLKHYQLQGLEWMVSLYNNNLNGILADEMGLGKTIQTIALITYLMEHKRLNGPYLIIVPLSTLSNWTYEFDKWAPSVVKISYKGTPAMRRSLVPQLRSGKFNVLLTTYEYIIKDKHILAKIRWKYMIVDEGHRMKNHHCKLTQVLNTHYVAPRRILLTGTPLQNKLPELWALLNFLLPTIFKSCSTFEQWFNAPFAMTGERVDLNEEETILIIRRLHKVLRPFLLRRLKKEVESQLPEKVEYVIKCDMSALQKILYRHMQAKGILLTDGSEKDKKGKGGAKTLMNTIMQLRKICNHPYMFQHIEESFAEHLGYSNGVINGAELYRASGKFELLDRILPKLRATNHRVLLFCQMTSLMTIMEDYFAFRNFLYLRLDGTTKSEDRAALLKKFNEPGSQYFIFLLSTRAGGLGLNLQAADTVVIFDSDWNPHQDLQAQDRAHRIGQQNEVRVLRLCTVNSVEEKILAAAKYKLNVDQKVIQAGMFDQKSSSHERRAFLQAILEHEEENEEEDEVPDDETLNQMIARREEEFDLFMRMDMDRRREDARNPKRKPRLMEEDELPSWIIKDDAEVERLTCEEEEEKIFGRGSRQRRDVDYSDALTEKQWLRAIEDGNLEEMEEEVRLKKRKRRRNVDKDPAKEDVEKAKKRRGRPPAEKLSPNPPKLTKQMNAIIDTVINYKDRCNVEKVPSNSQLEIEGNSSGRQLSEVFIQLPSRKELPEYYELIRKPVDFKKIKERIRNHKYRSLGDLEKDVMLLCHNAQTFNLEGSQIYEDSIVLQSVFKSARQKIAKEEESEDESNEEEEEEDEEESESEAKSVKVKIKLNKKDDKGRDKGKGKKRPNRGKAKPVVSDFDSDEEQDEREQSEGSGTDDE
Summary of the method: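 ADP-Glo luminescence, after depletion of leftover ATP and conversion of ADP, reported the activity. The 1 h room-temperature reaction held 400 μM ATP, 20 nM salmon sperm DNA and 30 nM BRM in 20 mM Tris pH 8, 20 mM MgCl2, 50 mM NaCl, 0.1% Tween-20, 1 mM DTT.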

[3] = ATPase catalytic activity, ADP-Glo

| SMILES | pIC50 [1, 3] | pIC50 [2, 3] | Ratio* ([2]; ratio of BRG1 IC50 to BRM IC50) | pIC50 ([1]; ADP-Glo ATPase assay) | pIC50 ([2]; ADP-Glo ATPase assay) | Ratio* ([2]; ratio BRG1 IC50 / BRM IC50) | Ratio* (BRG1 IC50 (μM) divided by BRM IC50 (μM)) [2] |
| --- | --- | --- | --- | --- | --- | --- | --- |
| O=C(NCc1cc2nc(-c3cncc(C4CC4)n3)ccc2cn1)c1cnc2c(c1)S(=O)(=O)CCCC2(F)F [Compound 434] | 5.80 | 6.93 | 13.52 | – | – | – | – |
| CC1CCc2ccc(-c3ccc4cnc(CNC(=O)c5ccc6c(c5)S(=O)(=O)CCOC6)cc4n3)nc2N1C1CC1 (stereo not drawn) [Compound 425] | 6.02 | 7.00 | 9.58 | – | – | – | – |
| C[C@@]1(F)CCCN(c2cccc(-c3ccc4cnc(CNC(=O)c5ccc6c(c5)S(=O)(=O)CCOC6)cc4n3)n2)C1 [Compound 318] | 7.09 | 8.03 | 8.53 | – | – | – | – |
| COc1cc(C2CC2)ccc1-c1ccc2cnc(CNC(=O)c3ccc4c(c3)S(=O)(=O)CCOC4)cc2n1 [Compound 387] | 6.14 | 7.17 | 10.65 | – | – | – | – |
| Cn1ccc2c(-c3ccc4cnc(CNC(=O)c5ccc6c(c5)S(=O)(=O)CCOC6)cc4n3)ccc(Cl)c21 [Compound 43] | – | – | – | 6.73 | 7.70 | – | 9.33 |
| O=C(NCc1cc2nc(N3CCOc4cc(N5CCC5)ncc43)ccc2cn1)c1ccc2c(c1)S(=O)(=O)CCOC2 [Compound 834] | – | – | – | 6.54 | 7.69 | 14.40 | – |
| COCCN(c1cccc(-c2ccc3cnc(CNC(=O)c4ccc5c(c4)S(=O)(=O)CCOC5)cc3n2)n1)C1CCC1 [Compound 374] | 7.15 | 8.06 | 8.04 | – | – | – | – |
| CN1CCC2(c3cccc(-c4ccc5cnc(CNC(=O)c6ccc7c(c6)S(=O)(=O)CCOC7)cc5n4)n3)CC2C1 (stereo not drawn) [Compound 699] | 5.66 | 6.56 | 8.04 | – | – | – | – |
| O=C(NCc1cc2nc(-c3cccc(C4CC4)n3)ccc2nn1)c1ccc2c(c1)S(=O)(=O)CCOC2 [Compound 253] | – | – | – | 6.40 | 7.68 | – | 19.26 |
| CO[C@H](C)Cn1ccc2c(-c3ccc4cnc(CNC(=O)c5ccc6c(c5)S(=O)(=O)CCOC6)cc4n3)ccnc21 [Compound 448] | 5.44 | 6.58 | 13.96 | – | – | – | – |
| C[C@@H]1CN(c2cccc(-c3ccc4cnc(CNC(=O)c5cnc6c(c5)S(=O)(=O)[C@H](C)CCC6)cc4n3)n2)C[C@H](C)O1 [Compound 515] | 5.59 | 6.64 | 11.23 | – | – | – | – |
| C[C@@H]1CN(c2ccnc(-c3ccc4cnc(CNC(=O)c5ccc6c(c5)S(=O)(=O)CCOC6)cc4c3)n2)C[C@H](C)O1 [Compound 707] | – | – | – | 6.58 | 7.26 | 4.84 | – |
| O=C(NCc1cc2nc(N3CCOc4ccc(C5CC5)c(F)c43)ccc2cn1)c1ccc2c(c1)S(=O)(=O)CCOC2 [Compound 760] | – | – | – | 7.21 | 8.06 | 7.05 | – |
| O=C(NCc1cc2nc(-c3cccc(C4CC4)n3)ccc2cn1)c1cnc2c(c1)S(=O)(=O)CCOC2 [Compound 204] | – | – | – | 6.17 | 7.25 | – | 12.01 |
| O=C(NCc1cc2nc(N3CCCc4ccc(OCC5(F)COC5)cc43)ccc2cn1)c1ccc2c(c1)S(=O)(=O)CCOC2 [Compound 745] | – | – | – | 7.55 | 8.35 | 6.27 | – |
| O=C(NCc1cc2nc(-c3cccc(C45COCC4C5)n3)ccc2cn1)c1ccc2c(c1)S(=O)(=O)CCOC2 (stereo not drawn) [Compound 472] | 6.43 | 7.60 | 14.93 | – | – | – | – |
| O=C(NCc1cc2nc(-c3cccc([C@@H]4CC4(F)F)c3)ccc2cn1)c1ccc2c(c1)S(=O)(=O)CCOC2 [Compound 251] | – | – | – | 5.77 | 6.76 | – | 9.69 |
| O=C(NCc1cc2nc(N3CCOc4cc(Cl)c(C5CC5)nc43)ccc2cn1)c1ccc2c(c1)S(=O)(=O)CCOC2 [Compound 698] | 5.33 | 6.71 | 24.47 | – | – | – | – |
| CC(C)(F)c1cccc(-c2ccc3cnc(CNC(=O)c4ccc5c(c4)S(=O)(=O)CCOC5)cc3n2)n1 [Compound 280] | – | – | – | 5.66 | 6.67 | – | 10.26 |
| COC[C@H]1COc2c(-c3ccc4cnc(CNC(=O)c5ccc6c(c5)S(=O)(=O)CCOC6)cc4n3)cccc2N1C [Compound 638] | 6.05 | 6.64 | 3.90 | – | – | – | – |
| CC[C@@H]1CCS(=O)(=O)c2cc(C(=O)NCc3cc4nc(-c5cccc(N6C[C@@H](C)O[C@@H](C)C6)n5)ccc4cn3)ccc2O1 [Compound 580] | 5.75 | 6.98 | 16.67 | – | – | – | – |
| COCCN(CC(C)(F)F)c1cccc(-c2ccc3cnc(CNC(=O)c4ccc5c(c4)S(=O)(=O)CCOC5)cc3n2)n1 [Compound 373] | 6.86 | 7.89 | 10.75 | – | – | – | – |
| C[C@@H]1CN(c2cccc(-c3ccc4cnc(CNC(=O)c5cc(C6CC6)c6c(c5)S(=O)(=O)CCOC6)cc4n3)n2)C[C@H](C)O1 [Compound 75] | – | – | – | 6.17 | 7.46 | – | 19.65 |
| COCc1ccc(C(=O)NCc2cc3nc(-c4cccc(N5C[C@@H](C)O[C@@H](C)C5)n4)ccc3cn2)cc1S(C)(=O)=O [Compound 192] | – | – | – | 7.49 | 8.29 | – | 6.45 |
| O=C(NCc1cc2nc(N3CCOc4cnc(C5CC5)cc43)ccc2cn1)c1ccc2c(c1)S(=O)(=O)CCOC2 [Compound 755] | – | – | – | 6.91 | 8.15 | 17.47 | – |
| COCCN1CCOc2c(-c3ccc4cnc(CNC(=O)c5ccc6c(c5)S(=O)(=O)CCOC6)cc4n3)ccc(F)c21 [Compound 402] | 7.22 | 8.24 | 10.67 | – | – | – | – |
| O=C(NCc1cc2nc(-c3cccc(OCC(F)F)c3)ccc2cn1)c1ccc2c(c1)S(=O)(=O)CCOC2 [Compound 103] | – | – | – | 5.56 | 6.60 | – | 10.96 |
| CS(=O)(=O)c1cc(C(=O)NCc2cc3nc(-c4cccc(N5CC[C@H]6COC[C@H]6C5)n4)ccc3cn2)ccc1Cl [Compound 76] | – | – | – | 6.17 | 7.34 | – | 14.90 |
| C[C@@H]1CN(c2cccc(-c3ccc4cnc(CNC(=O)c5ccc6c(c5)S(=O)(=O)[C@H](C)C6)cc4n3)n2)C[C@H](C)O1 [Compound 502] | 6.92 | 8.10 | 14.99 | – | – | – | – |
| CCOc1nc(-c2ccc3cnc(CNC(=O)c4ccc5c(c4)S(=O)(=O)CCOC5)cc3n2)ccc1C [Compound 501] | 6.87 | 8.00 | 13.59 | – | – | – | – |

Further lines, results first:

| pIC50 [1, 3] | pIC50 [2, 3] | Ratio* ([2]; ratio of BRG1 IC50 to BRM IC50) | pIC50 ([1]; ADP-Glo ATPase assay) | pIC50 ([2]; ADP-Glo ATPase assay) | Ratio* ([2]; ratio BRG1 IC50 / BRM IC50) | Ratio* (BRG1 IC50 (μM) divided by BRM IC50 (μM)) [2] | SMILES |
| --- | --- | --- | --- | --- | --- | --- | --- |
| 6.76 | 7.82 | 11.51 | – | – | – | – | Cn1c(C(F)F)cc2c(-c3ccc4cnc(CNC(=O)c5ccc6c(c5)S(=O)(=O)CCOC6)cc4n3)ccnc21 [Compound 397] |
| 6.43 | 7.60 | 14.85 | – | – | – | – | O=C(NCc1cc2nc(N3CCCc4ccc(C(F)(F)F)cc43)ccc2cn1)c1ccc2c(c1)S(=O)(=O)CCOC2 [Compound 525] |
| 6.57 | 7.62 | 11.06 | – | – | – | – | O=C(NCc1cc2nc(N3CCCc4cc(N5CCC5)cnc43)ccc2cn1)c1ccc2c(c1)S(=O)(=O)CCOC2 [Compound 666] |
| – | – | – | 5.68 | 6.98 | 19.74 | – | O=C(NCc1cc2nc(N3CCOc4ccc([C@@H](F)CF)nc43)ccc2cn1)c1ccc2c(c1)S(=O)(=O)CCOC2 [Compound 854] |
| 6.08 | 7.17 | 12.50 | – | – | – | – | CO[C@@H](C)c1ccc2c(n1)N(c1ccc3cnc(CNC(=O)c4ccc5c(c4)S(=O)(=O)CCOC5)cc3n1)CCC2 [Compound 561] |
| 7.20 | 8.25 | 11.17 | – | – | – | – | COc1cnc2c(c1)OCCN2c1ccc2cnc(CNC(=O)c3ccc4c(c3)S(=O)(=O)CCOC4)cc2n1 [Compound 619] |
| 6.75 | 7.68 | 8.47 | – | – | – | – | N#Cc1ccc2c(c1)CCCN2c1ccc2cnc(CNC(=O)c3ccc4c(c3)S(=O)(=O)CCOC4)cc2n1 [Compound 527] |
| – | – | – | 6.48 | 7.52 | 10.98 | – | O=C(NCc1cc2nc(N3CC(F)Cc4cccnc43)ccc2cn1)c1ccc2c(c1)S(=O)(=O)CCOC2 (stereo not drawn) [Compound 842] |
| 6.86 | 7.88 | 10.53 | – | – | – | – | O=C(NCc1cc2nc(N3CCOc4cc(C(F)F)cnc43)ccc2cn1)c1ccc2c(c1)S(=O)(=O)CCOC2 [Compound 508] |
| 6.89 | 7.91 | 10.50 | – | – | – | – | Cc1cnc2c(c1)CCN2c1ccc2cnc(CNC(=O)c3ccc4c(c3)S(=O)(=O)CCOC4)cc2n1 [Compound 656] |
| 6.37 | 7.22 | 7.10 | – | – | – | – | O=C(NCc1cc2nc(N3CCCc4c(C(F)F)ccnc43)ccc2cn1)c1ccc2c(c1)S(=O)(=O)CCOC2 [Compound 521] |
| 7.36 | 8.36 | 10.04 | – | – | – | – | COc1ccnc2c1CCCN2c1ccc2cnc(CNC(=O)c3ccc4c(c3)S(=O)(=O)CCOC4)cc2n1 [Compound 439] |
| 6.58 | 7.67 | 12.29 | – | – | – | – | O=C(NCc1cc2nc(N3CCOc4cc(C(F)F)ccc43)ccc2cn1)c1ccc2c(c1)S(=O)(=O)CCOC2 [Compound 520] |
| – | – | – | 5.66 | 6.67 | 10.10 | – | Cc1ncnc2c1CCCN2c1ccc2cnc(CNC(=O)c3ccc4c(c3)S(=O)(=O)CCOC4)cc2n1 [Compound 848] |
